Data reported in PubChem BioAssay (NCI).
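Test compounds were applied to cells in 96-well plates for 48 hours at 5 doses. Definition used: TGI = concentration required for complete inhibition of growth.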

Key:
Experiment in all cases: inhibition of tumour cell growth, NCI panel, 48 h
HT29 colon = system: HT29 colon
MDA-MB-435 = system: MDA-MB-435
RXF 393 renal = system: RXF 393 renal
SK-MEL-5 melanoma = system: SK-MEL-5 melanoma
HCT-116 colon = system: HCT-116 colon
SK-MEL-28 melanoma = system: SK-MEL-28 melanoma
786-0 renal = system: 786-0 renal
COLO 205 colon = system: COLO 205 colon
BT-549 breast = system: BT-549 breast
UACC-62 melanoma = system: UACC-62 melanoma
SNB-75 CNS = system: SNB-75 CNS
U251 CNS = system: U251 CNS
IGROV1 ovarian = system: IGROV1 ovarian
HOP-62 NSCLC = system: HOP-62 NSCLC
SF-268 CNS = system: SF-268 CNS
SNB-19 CNS = system: SNB-19 CNS
HCC-2998 colon = system: HCC-2998 colon
MALME-3M melanoma = system: MALME-3M melanoma

SMILES	TGI (HT29 colon) [µM]	TGI (MDA-MB-435) [µM]	TGI (RXF 393 renal) [µM]	TGI (SK-MEL-5 melanoma) [µM]	TGI (HCT-116 colon) [µM]	TGI (SK-MEL-28 melanoma) [µM]	TGI (786-0 renal) [µM]	TGI (COLO 205 colon) [µM]	TGI (BT-549 breast) [µM]	TGI (UACC-62 melanoma) [µM]	TGI (SNB-75 CNS) [µM]	TGI (U251 CNS) [µM]	TGI (IGROV1 ovarian) [µM]	TGI (HOP-62 NSCLC) [µM]	TGI (SF-268 CNS) [µM]	TGI (SNB-19 CNS) [µM]	TGI (HCC-2998 colon) [µM]	TGI (MALME-3M melanoma) [µM]
O=C(NN1C(=O)c2ccccc2C1=O)c1ccccc1Nc1ccccc1C(=O)NN1C(=O)c2ccccc2C1=O	> 100	> 100	> 100	> 100	> 100	> 100	> 100	> 100	> 100	> 100	> 100	> 100	> 100	> 100	> 100	> 100	> 100	> 100
NC(=O)NC(=O)c1ccc(NC(=O)CBr)cc1	3.42	3.06	3.32	3.23	2.29	13.1	0.919	2.99	4.7	4.03	4.19	2.25	4.78	4.81	3.09	> 49.8	25.5	3.96
O=c1c2c3c(sc2nc2n1N=CN(c1ccc(Cl)cc1)C2)CCCC3	> 100	> 100	> 100	> 100	> 100	> 100	> 100	> 100	> 100	> 100	> 100	> 100	> 100	> 100	> 100	> 100	72	97.9
COC(=O)C(Cc1c[nH]c2ccccc12)NP(=O)(O)OCC1OC(n2cc(F)c(=O)[nH]c2=O)CC1O (stereo unspecified)	> 100	> 100	> 100	> 100	> 100	> 100	> 100	> 100	> 100	> 100	> 100	> 100	> 100	> 100	> 100	> 100	> 100	> 100
COc1cc(C2S/C(=C/c3ccccc3)C(=O)N2c2ccc([N+](=O)[O-])cc2)cc(OC)c1OC (stereo unspecified)	> 100	> 100	> 100	> 100	> 100	> 100	> 100	> 100	> 100	> 100	> 100	> 100	> 83.5	> 100	> 100	> 100	> 100	> 100
Cc1ccccc1NC(=O)/C(C#N)=N\Nc1nc[nH]c1C(N)=O	> 100	> 100	> 100	> 100	> 100	> 100	> 100	> 100	> 100	> 100	> 100	> 100	> 100	> 100	> 100	> 100	> 100	> 100
COc1cc(/C=N/NC2=NCCCN2)ccc1O	> 100	> 100	> 100	> 100	> 100	> 100	> 100	> 100	> 100	> 100	> 100	> 100	> 100	> 100	> 100	> 100	> 100	> 100
CCOC(=O)c1c(-c2ccccc2)[nH]c2ccc(Cl)cc2c1=O	> 100	> 100	> 100	> 100	> 100	> 100	> 100	> 100	> 100	> 100	> 100	> 100	> 100	> 100	> 100	> 100	> 100	> 100
COC(=O)c1nc2c3c(cccc3c1C(=O)OC)Nc1ccccc1-2	> 100	> 100	> 100	56.5	> 100	> 100	> 100	> 100	> 100	55.7	> 100	> 100	> 100	71.7	> 100	> 100	> 100	93
CN(C)CCN1C(=O)c2ccccc2C1(O)c1ccc(Cl)cc1 (stereo unspecified)	> 100	> 100	77.5	67.2	> 100	> 100	> 100	> 100	> 100	> 100	> 100	> 100	> 100	> 100	> 100	> 100	> 100	70.7
CC(C)(CCCCC(C)(C)NCC1COc2ccccc2O1)NCC1COc2ccccc2O1 (stereo unspecified)	7.08	3.6	8.83	2.95	> 10	3.66	> 10	4.12	> 10	9.93	> 10	> 10	> 10	> 10	> 10	> 10	4.73	4.65
CNC(=S)NNC1=NCCCCN1	> 100	> 100	> 100	> 100	> 100	> 100	> 100	> 100	> 100	> 100	> 100	> 100	> 100	> 100	> 100	> 100	> 100	> 100
